{"source": "patent US5674730A", "about": "“Eukaryotic cells comprising a DNA sequence encoding a bacterial-viral chimeric transactivator protein” (priority 1993, dated 1997)", "assay_type_in_all_cases": "cell-based", "key": {"[1]": {"test_system": "LAP348 lac activator protein: E. coli lacI 5'N1 (SV40 nuclear localization signal) with HSV VP16 amino acids 369-488 inserted after lacI amino acid 348", "experiment": "Transient cotransfection CAT assay with or without IPTG in the growth medium (FIG. 6)", "conditions": "10 mM IPTG in growth medium; HeLa cells cotransfected with pL1-2CAT and pHCMVLAP348", "description": "FIG. 6 Inhibition of LAP activity by IPTG. HeLa cells were plated out two days before transfection in normal media or media containing 10 mM IPTG. Transfections contained 2 μg of either pSV2CAT or pL1-2CAT alone or with 1 μg of pHCMVLAP348. Cells transfected in IPTG were fed with media containing 10 mM IPTG 16 hours after transfection. CAT assays were preformed as described in the text. The relative activities (RA) of each extract normalized to that produced by pSV2CAT are shown below the figure.\n(§1) Cells were transfected by the calcium phosphate precipitation method as previously described (Wigler et al., 1979, Proc. Natl. Acad. Sci. USA 76:1373-1376). For transient expression assays, 50-70% confluent […] of cells were incubated overnight after addition to the media of a 1 ml precipitate containing 2 μg of reporter and 1 μg of effector plasmids and carrier DNA (high molecular weight calf thymus DNA) for a total of 25 μg of DNA. The media and precipitate were removed and replaced with fresh media the next morning.\n(§2) Cells were harvested 44-48 hours after transfection and CAT assays performed essentially as described (Gorman et al., 1982, Mol. Cell Biol. 2:1044-1051). Equal amounts (30-200 μg) of protein were used in each experiment. CAT activity was quantitated by thin layer chromatography and liquid scintillation counting of spots. […]"}, "[2]": {"test_system": "LAP348 lac activator protein: E. coli lacI 5'N1 with HSV VP16 amino acids 369-488 inserted after lacI amino acid 348, stably expressed", "experiment": "CAT assay in cell line stably expressing LAP348, with or without IPTG (FIG. 8)", "conditions": "IPTG (10 mM per FIG. 8 legend) added to medium two days before transfection; LAPneo2b cells", "description": "FIG. 8 Inhibition of LAP348 activity of L3 cells by IPTG. Either LTK or L3, or L3 cells grown in the presence of 10 mM IPTG (L3+i) for 48 hours before transfection, were transfected with either pSV2cat or pL1-2cat as indicated. The relative activity of the extracts normalized to that produced by SV2cat in Ltk- cells are shown below.\nas §1\nas §2, with “spots. Extracts that converted greater than 80% of the chloramphenicol in an assay were diluted appropriately to ensure linearity of the assay.” for “spots.”"}, "[3]": {"test_system": "LAP267 temperature-sensitive lac activator protein: E. coli lacI 5'N1 with HSV VP16 segment inserted after lacI amino acid 267", "experiment": "CAT expression from pL14CAT as a function of IPTG concentration at 39.5° C. (FIG. 9)", "conditions": "39.5° C. (non-permissive temperature); HeLa cells cotransfected with LAP267 and pL14CAT", "description": "FIG. 9 Reverse-regulatory effect of IPTG on transactivator activity of LAP267 at 39.5° C.\nLAP267 was constructed as described for LAP348 in Section 6.1.1., supra, except that the VP16 segment was inserted at an EcoRV site after amino acid 267 in the lacI coding region (FIG. 1A).\nHeLa cells were cotransfected with plasmids encoding the LAP267 or LAP348 activator protein and pL14CAT, encoding CAT reporter gene. […] This property enables the expression of genes controlled by LAP267 to be induced at 39.5° C. by addition of IPTG to the culture medium."}}, "data": [{"smiles": "CC(C)S[C@@H]1O[C@H](CO)[C@H](O)[C@H](O)[C@H]1O", "note": "[IPTG, isopropyl β-D-thiogalactoside]", "values": [{"measurement": "reduction of the level of activation of pL1-2CAT by LAP348", "setting": "[1]", "value": "greater than 10 fold"}, {"measurement": "reduction of expression of pL1-2CAT in LAP348-expressing cell line", "setting": "[2]", "value": "greater than 30 fold"}, {"measurement": "effect of IPTG on transactivator activity of LAP267", "setting": "[3]", "value": "reverse regulator"}]}]}
